Experimental data published in ChEMBL document CHEMBL1201862, “PubChem BioAssay data set” (2004).
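Exposure lasted 48 hours, with cells grown in 96-well plates and compounds tested at five concentrations. Here, GI50 denotes the concentration required for 50% inhibition of growth.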 Activity calls are given as the source filed them. Rule as the data show it: active = GI50 up to about 1.1 µM and inactive = higher.

Assays:
Test in all cases: NCI-60 cell line screen, 48 h
[1] = system: KM12
[2] = system: XF498
[3] = system: RPMI-8226
[4] = system: U-251
[5] = system: OVCAR-5
[6] = system: HCC 2998
[7] = system: CCRF-CEM
[8] = system: HOP-92
[9] = system: A549
[10] = system: LOX IMVI
[11] = system: HL-60
[12] = system: SK-MEL-5
[13] = system: NCI-H522
[14] = system: HOP-18
[15] = system: MCF7
[16] = system: OVCAR-4
[17] = system: SN12C
[18] = system: OVCAR-3
[19] = system: SNB-75
[20] = system: SK-MEL-2
[21] = system: SF-539
[22] = system: M19-MEL
[23] = system: UO-31
[24] = system: DLD-1
[25] = system: EKVX
[26] = system: SK-MEL-28
[27] = system: NCI-H460
[28] = system: NCI-H226
[29] = system: K562
[30] = system: HCT-116
[31] = system: NCI-H23
[32] = system: UACC-257
[33] = system: KM-20L2
[34] = system: RXF 393
[35] = system: MOLT-4
[36] = system: HT-29
[37] = system: SNB-19
[38] = system: IGROV-1
[39] = system: SW-620
[40] = system: CAKI-1
[41] = system: A498
[42] = system: NCI/ADR-RES
[43] = system: OVCAR-8
[44] = system: SF-295
[45] = system: SK-OV-3
[46] = system: SNB-78
[47] = system: Malme-3M
[48] = system: HCT-15
[49] = system: UACC-62
[50] = system: COLO 205
[51] = system: HOP-62
[52] = system: DMS-273
[53] = system: SF-268
[54] = system: DMS-114
[55] = system: SR
[56] = system: TK-10
[57] = system: 786-0
[58] = system: ACHN
[59] = system: M14
[60] = system: LXFL 529

Measured: GI50

CCOC(=O)/C=C/c1c[nH]c(C(=O)OCC)c1
> 100 µM: [48]
inactive: [1] > 100 µM | [2] > 95.1 µM | [3] > 100 µM | [4] > 100 µM | [5] > 100 µM | [6] > 100 µM | [7] > 100 µM | [8] > 100 µM | [9] > 100 µM | [10] > 100 µM | [11] > 100 µM | [12] > 100 µM | [13] > 90.8 µM | [14] > 100 µM | [15] > 100 µM | [16] > 100 µM | [17] > 100 µM | [18] > 100 µM | [19] > 66.1 µM | [20] > 100 µM | [21] > 100 µM | [22] > 100 µM | [23] > 100 µM | [24] > 100 µM | [25] > 85.7 µM | [26] > 100 µM | [27] > 100 µM | [28] > 100 µM | [29] 51.5 µM | [30] > 100 µM | [31] > 100 µM | [32] > 100 µM | [33] > 100 µM | [34] > 100 µM | [35] > 100 µM | [36] > 100 µM | [37] > 100 µM | [38] > 100 µM | [39] > 100 µM | [40] > 100 µM | [41] > 100 µM | [42] > 100 µM | [43] > 100 µM | [44] > 100 µM | [45] > 100 µM | [46] > 86.1 µM | [47] > 100 µM | [49] > 69.3 µM | [50] > 100 µM | [51] > 100 µM | [52] > 100 µM | [53] > 100 µM | [54] > 100 µM

CC(C)c1cc2c(O)c(c1)Cc1cc(C(C)C)cc(c1O)Cc1cc(C(C)C)cc(c1O)Cc1cc(C(C)C)cc(c1O)C2
> 100 µM: [48]
inactive: [1] > 100 µM | [2] > 100 µM | [3] > 100 µM | [55] > 100 µM | [4] > 100 µM | [5] > 100 µM | [7] > 100 µM | [8] > 100 µM | [9] > 100 µM | [10] > 100 µM | [11] > 100 µM | [12] > 100 µM | [13] > 100 µM | [14] > 100 µM | [16] > 100 µM | [18] > 100 µM | [19] > 100 µM | [20] > 100 µM | [21] > 100 µM | [22] > 100 µM | [23] > 100 µM | [24] > 100 µM | [25] > 100 µM | [27] > 100 µM | [28] > 100 µM | [29] > 100 µM | [56] > 100 µM | [30] > 100 µM | [31] > 100 µM | [32] > 100 µM | [33] > 100 µM | [34] > 100 µM | [35] > 100 µM | [36] > 100 µM | [37] > 100 µM | [38] > 100 µM | [39] > 100 µM | [40] > 100 µM | [41] > 100 µM | [43] > 100 µM | [44] > 100 µM | [45] > 100 µM | [46] > 100 µM | [47] > 100 µM | [49] > 100 µM | [50] > 100 µM | [51] > 100 µM | [57] > 100 µM | [52] > 100 µM | [53] > 100 µM | [54] > 100 µM

COc1ccccc1N1C(=O)/C(=C/c2ccc(N(CCC#N)CCC#N)cc2C)N=C1c1cc([N+](=O)[O-])ccc1Cl
> 100 µM: [48]
inactive: [1] > 100 µM | [2] > 100 µM | [3] > 100 µM | [58] > 100 µM | [55] > 100 µM | [4] > 100 µM | [5] > 100 µM | [6] > 100 µM | [7] > 100 µM | [9] > 100 µM | [59] 68.2 µM | [11] > 100 µM | [12] > 100 µM | [13] > 100 µM | [14] > 100 µM | [16] 20.6 µM | [17] > 100 µM | [18] > 100 µM | [19] > 100 µM | [20] > 100 µM | [21] > 100 µM | [22] 24.2 µM | [23] > 100 µM | [25] > 100 µM | [26] > 100 µM | [27] > 100 µM | [28] > 100 µM | [29] > 100 µM | [56] > 100 µM | [30] > 100 µM | [60] > 100 µM | [31] > 100 µM | [32] > 100 µM | [33] > 100 µM | [35] > 100 µM | [36] > 100 µM | [37] > 100 µM | [38] > 100 µM | [40] > 100 µM | [41] > 100 µM | [43] > 100 µM | [44] > 100 µM | [45] > 100 µM | [46] > 100 µM | [47] > 100 µM | [50] > 100 µM | [51] > 100 µM | [57] > 100 µM | [52] > 100 µM | [53] > 100 µM | [54] > 100 µM
